According to ChEMBL document CHEMBL1201862, “PubChem BioAssay data set” (2004):
Values belong to the molecule of their own block, whether it stands above or below them. The source made the active and inactive calls.

How the values were obtained:
[1] = cytotoxicity toward DRD oncogenic fibroblasts, dose response, cell-based, non-viral oncogenic, luminescence (AID 1934); type: functional; conditions: Homo sapiens
[2] = molecular target: T1, DNA repair protein RAD52 homolog (Homo sapiens, UniProt P43351); type: functional, biochemical
T1 sequence (P43351 whole entry): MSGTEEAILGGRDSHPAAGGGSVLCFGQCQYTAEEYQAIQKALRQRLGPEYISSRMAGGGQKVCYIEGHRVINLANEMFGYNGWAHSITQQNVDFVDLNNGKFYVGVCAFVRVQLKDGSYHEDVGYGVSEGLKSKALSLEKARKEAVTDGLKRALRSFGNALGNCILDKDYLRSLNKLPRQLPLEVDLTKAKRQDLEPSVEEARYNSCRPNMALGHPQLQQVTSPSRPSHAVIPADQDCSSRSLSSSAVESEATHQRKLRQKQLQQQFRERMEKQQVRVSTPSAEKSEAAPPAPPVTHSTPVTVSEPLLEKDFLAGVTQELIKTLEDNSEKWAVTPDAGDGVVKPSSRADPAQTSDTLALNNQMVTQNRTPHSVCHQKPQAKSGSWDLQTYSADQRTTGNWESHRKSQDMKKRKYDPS

[3] = molecular target: Serine/threonine-protein phosphatase PP1-alpha catalytic subunit (Homo sapiens, UniProt P62136); assay: PP1 phosphatase inhibitors, dose response, biochemical, fluorescence (AID 2394)
Serine/threonine-protein phosphatase PP1-alpha catalytic subunit, sequence (P62136 whole entry): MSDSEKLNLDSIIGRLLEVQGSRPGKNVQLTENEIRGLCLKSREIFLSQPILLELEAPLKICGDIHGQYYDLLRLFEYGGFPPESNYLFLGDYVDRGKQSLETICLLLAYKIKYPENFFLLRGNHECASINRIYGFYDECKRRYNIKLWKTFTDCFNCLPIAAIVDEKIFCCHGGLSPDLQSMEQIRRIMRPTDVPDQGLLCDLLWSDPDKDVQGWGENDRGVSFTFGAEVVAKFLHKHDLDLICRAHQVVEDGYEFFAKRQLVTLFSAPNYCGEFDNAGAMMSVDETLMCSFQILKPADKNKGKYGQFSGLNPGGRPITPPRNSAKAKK

[4] = molecular target: T2, Tyrosyl-DNA phosphodiesterase 2 (Homo sapiens, UniProt O95551); assay: human TDP2 enzyme inhibitors, dose response, biochemical, epi absorbance, IC50 (AID 743297)
T2 sequence (O95551 whole entry): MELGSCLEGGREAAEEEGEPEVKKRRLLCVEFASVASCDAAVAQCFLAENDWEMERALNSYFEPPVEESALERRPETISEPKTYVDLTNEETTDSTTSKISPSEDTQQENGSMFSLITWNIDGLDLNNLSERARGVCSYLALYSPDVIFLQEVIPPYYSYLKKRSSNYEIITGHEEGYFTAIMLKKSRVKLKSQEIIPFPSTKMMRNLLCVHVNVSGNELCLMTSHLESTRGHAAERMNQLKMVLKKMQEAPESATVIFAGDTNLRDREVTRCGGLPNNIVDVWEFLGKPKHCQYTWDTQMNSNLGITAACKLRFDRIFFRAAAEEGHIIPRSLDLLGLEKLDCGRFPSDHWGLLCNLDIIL

[5] = molecular target: T3, Mannose-6-phosphate isomerase (Homo sapiens, UniProt P34949); assay: inhibitors of human PMI, primary screen, biochemical, fluorescence intensity, coupled assay (AID 1209)
T3 sequence (P34949 whole entry): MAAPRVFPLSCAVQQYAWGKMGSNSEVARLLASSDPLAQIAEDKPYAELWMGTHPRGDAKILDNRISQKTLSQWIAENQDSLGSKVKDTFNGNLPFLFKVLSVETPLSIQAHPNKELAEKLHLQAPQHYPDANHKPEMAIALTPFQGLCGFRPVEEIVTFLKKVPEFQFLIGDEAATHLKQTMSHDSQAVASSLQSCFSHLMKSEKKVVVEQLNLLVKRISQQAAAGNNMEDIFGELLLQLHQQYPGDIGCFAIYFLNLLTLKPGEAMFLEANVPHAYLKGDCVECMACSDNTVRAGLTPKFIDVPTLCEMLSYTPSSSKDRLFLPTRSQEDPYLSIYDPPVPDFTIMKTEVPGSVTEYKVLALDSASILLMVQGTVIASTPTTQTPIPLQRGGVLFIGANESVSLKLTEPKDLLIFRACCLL

SMILES: OC(CNCCC1C=Nc2ccccc21)Cn1c2ccc(Cl)cc2c2cc(Cl)ccc21 (stereo not given)
EC50 [1]: 9.1 µM (active)

SMILES: CCCCCCCCCCCCCCCC[N+](C)(C)C
AC50 [2]: 8.73 µM (active)

IC50 [3]: > 67 µM (not active)
SMILES: COc1ccc(C(=O)c2nccc3cc(OC)c(OC)cc23)cc1OC

SMILES: Cc1ccccc1-c1cc2c(nn1)-c1ccccc1C2=O
IC50 [4]: 32 µM (inactive)
IC50 [5]: > 50 µM (not active)
